Literature values in paper PMC3969558 (Molecular Biology and Evolution, 2013).
No end group written: not given here.

How the values were obtained:
[1] = system: steroidal receptors (nuclear receptors similar to the sex steroid receptors); settings: ref Paris et al. 2008; Katsu et al. 2010
amphioxus GnRHR3 = settings: ref Tello and Sherwood 2009

Molecule | binding to amphioxus steroidal receptor [1] | activation of GnRHR3 (earlier study) (amphioxus GnRHR3)
C[C@]12CC[C@@H]3c4ccc(O)cc4CC[C@H]3[C@@H]1CC[C@@H]2O [estradiol] | has been shown to bind one of the steroidal receptors | –
vertebrate GnRH2: vertebrate GnRH2, present throughout the vertebrates, 10 amino acids (QHWSHGWYPG; ends and bridges not checked; UniProt O43555 24-33, looked up) | – | activated amphioxus GnRHR3 within the vertebrate physiological range
